Source: patent publication US11254690B2, “PTEFb inhibiting macrocyclic compounds” (BAYER AKTIENGESELLSCHAFT, priority 2017, dated 2022)
pIC50: −log10 of the molar value. Like-named read-outs stand apart in the source and are kept apart here.

Key:
[1] = in vivo; cited from earlier work
CDK9/CycT1 = molecular target: T1, CDK9/CycT1 (Homo sapiens, UniProt P50750); test: CDK9/CycT1 high ATP kinase assay (TR-FRET, 2 mM ATP); type: biochemical; conditions: for pIC50: 2 mM ATP, Method 1b, lower limit for IC50s about 1-2 nM; for Selectivity high ATP CDK9 over high ATP CDK2: IC50 (high ATP CDK2)/IC50 (high ATP CDK9): ratio from Methods 1b and 2b, minimal values for IC50s near the assay limit
T1 construct: Recombinant full-length His-tagged human CDK9 and CycT1; His; purchased Life Technologies PV4131; host or cells: insect cells
Procedure: 1b. CDK9/CycT1 High ATP Kinase Assay
CDK9/CycT1-inhibitory activity of compounds of the present invention at a high ATP concentration after preincubation of enzyme and test compounds was quantified employing the CDK9/CycT1 TR-FRET assay as described in the following paragraphs.
Recombinant full-length His-tagged human CDK9 and CycT1, expressed in insect cells and purified by Ni-NTA affinity chromatography, were purchased from Life Technologies (Cat. No PV4131). As substrate for the kinase reaction biotinylated peptide biotin-Ttds-YISPLKSPYKISEG (C-terminus in amide form) was used which can be purchased e.g. form the company JERINI peptide technologies (Berlin, Germany).
(§1) For the assay 50 nl of a 100 fold concentrated solution of the test compound in DMSO was pipetted into either a black low volume 384 well microtiter plate or a black 1536 well microtiter plate (both Greiner Bio-One, Frickenhausen, Germany), 2 μl of a solution of CDK9/CycT1 in aqueous assay buffer [50 mM Tris/HCl pH 8.0, 10 mM MgCl2, 1.0 mM dithiothreitol, 0.1 mM sodium ortho-vanadate, 0.01% (v/v) Nonidet-P40 (Sigma)] were added and the mixture was incubated for 15 min at 22° C. to allow pre-binding of the test compounds to the enzyme before the start of the kinase reaction. […] The concentration of CDK9/CycT1 was adjusted depending of the activity of the enzyme lot and was chosen appropriate to have the assay in the linear range, typical concentrations were in the range of 0.5 μg/ml. The reaction was stopped by the addition of 3 μl of a solution of TR-FRET detection reagents (0.33 μM streptavidine-XL665 [Cisbio Bioassays, Codolet, France] and 1.67 nM anti-RB(pSer807/pSer811)-antibody from BD Pharmingen [#558389] and 2 nM LANCE EU-W1024 labeled anti-mouse IgG antibody [Perkin-Elmer, product no. AD0077]) in an aqueous EDTA-solution (167 mM EDTA, 0.2% (w/v) bovine serum albumin in 100 mM HEPES pH 7.5).
(§2) The resulting mixture was incubated 1 h at 22° C. to allow the formation of complex between the phosphorylated biotinylated peptide and the detection reagents. Subsequently the amount of phosphorylated substrate was evaluated by measurement of the resonance energy transfer from the Eu-chelate to the streptavidine-XL. Therefore, the fluorescence emissions at 620 nm and 665 nm after excitation at 350 nm was measured in a TR-FRET reader, e.g. a Pherastar (BMG Labtechnologies, Offenburg, Germany) or a Viewlux (Perkin-Elmer). The ratio of the emissions at 665 nm and at […] was taken as the measure for the amount of phosphorylated substrate. The data were normalised (enzyme reaction without inhibitor=0% inhibition, all other assay components but no enzyme=100% inhibition).

CDK2/CycE = molecular target: T2, CDK2/CycE (Homo sapiens, UniProt P24941); test: CDK2/CycE high ATP kinase assay (TR-FRET, 2 mM ATP); type: biochemical; conditions: Method 2b
T2 construct: GST; purchased ProQinase GmbH (Freiburg, Germany); host or cells: insect cells (Sf9)
Procedure: 2b. CDK2/CycE High ATP Kinase Assay
CDK2/CycE-inhibitory activity of compounds of the present invention at 2 mM adenosine-tri-phosphate (ATP) was quantified employing the CDK2/CycE TR-FRET (TR-FRET=Time Resolved Fluorescence Energy Transfer) assay as described in the following paragraphs.
Recombinant fusion proteins of GST and human CDK2 and of GST and human CycE, expressed in insect cells (Sf9) and purified by Glutathion-Sepharose affinity chromatography, were purchase from ProQinase GmbH (Freiburg, Germany). As substrate for the kinase reaction biotinylated peptide biotin-Ttds-YISPLKSPYKISEG (C-terminus in amid form) was used which can be purchased e.g. form the company JERINI peptide technologies (Berlin, Germany).
as §1, with “CDK2/CycE” for “CDK9/CycT1”, “about 10 ng/ml.” for “in the range of 0.5 μg/ml.”, “(0.333” for “(0.33”, “AD0077, as an alternative a Terbium-cryptate-labeled anti-mouse IgG antibody from Cisbio Bioassays can be used])” for “AD0077])”
as §2

A2780 cells = test: Proliferation assay, A2780; type: cell-based, human; conditions: 72-hour exposure, Cell Titre-Glo, read-out: Inhibition of A2780 cell proliferation IC50
Procedure: Cultivated tumour cells (HeLa, human cervical tumour cells, ATCC CCL-2; NCI-H460, human non-small cell lung carcinoma cells, ATCC HTB-177; DU 145, hormone-independent human prostate carcinoma cells, ATCC HTB-81; HeLa-MaTu-ADR, multidrug-resistant human cervical carcinoma cells, EPO-GmbH Berlin; Caco-2, human colorectal carcinoma cells, ATCC HTB-37; B16F10, mouse melanoma cells, ATCC CRL-6475) were plated at a density of 5,000 cells/well (DU145, HeLa-MaTu-ADR), 3,000 cells/well (NCI-H460, HeLa), 1,500 cells/well (Caco-2), or 1,000 cells/well (B16F10) in a 96-well multititer plate in 200 μL of their respective growth medium supplemented 10% fetal calf serum. After 24 hours, the cells of one plate (zero-point plate) were stained with crystal violet (see below), while the medium of the other plates was supplemented with the test substances in various concentrations (0 μM, as well as in the range of 0.0001-10 μM; the final concentration of the solvent dimethyl sulfoxide was adjusted to 0.1%) using a Hewlett-Packard HP D300 Digital Dispenser. The cells were incubated for 4 days in the presence of test substances. Cell proliferation was determined by staining the cells with crystal violet: the cells were fixed by adding 20 μl/measuring point of an 11% glutaric aldehyde solution for 15 minutes at room temperature. After three washing cycles of the fixed cells with water, the plates were dried at room temperature. The cells were stained by adding 100 μl/measuring point of a 0.1% crystal violet solution (pH 3.0). After three washing cycles of the stained cells with water, the plates were dried at room temperature. The dye was dissolved by adding 100 μl/measuring point of a 10% acetic acid solution. The extinction was determined by photometry at a wavelength of 595 nm. The change of cell number, in percent, was calculated by normalization of the measured values to the extinction values of the zero-point plate (=0%) and the extinction of the untreated ([…]) cells (=100%). The IC50 values (inhibitory concentration at 50% of maximal effect) were determined by means of a 4 parameter fit. A2780 human ovarian carcinoma cells (ECACC #93112519) and non-adherent MOLM-13 human acute myeloid leukemia cells (DSMZ ACC 554) were seeded at a density of 3,000 cell/well (A2780) or 5,000 cells/well (MOLM-13) in a 96-well multititer plate in 150 μL of growth medium supplemented 10% fetal calf serum. After 24 hours, cell viability of one plate (zero-point plate) was determined with the Cell Titre-Glo Luminescent Cell Viability Assay (Promega), while the medium of the other plates was supplemented with the test substances in various concentrations (0 μM, as well as in the range of 0.0001-10 μM; the final concentration of the solvent dimethyl sulfoxide was adjusted to 0.1%) using a Hewlett-Packard HP D300 Digital Dispenser. Cell viability was assessed after 72-hour exposure with the Cell Titre-Glo Luminescent Cell Viability Assay (Promega). IC50 values (inhibitory concentration at 50% of maximal effect) were determined by means of a 4 parameter fit on measurement data which were normalized to vehicle (DMSO) treated cells (=100%) and measurement readings taken immediately before compound exposure (=0%).

T1 sequence (P50750 whole entry): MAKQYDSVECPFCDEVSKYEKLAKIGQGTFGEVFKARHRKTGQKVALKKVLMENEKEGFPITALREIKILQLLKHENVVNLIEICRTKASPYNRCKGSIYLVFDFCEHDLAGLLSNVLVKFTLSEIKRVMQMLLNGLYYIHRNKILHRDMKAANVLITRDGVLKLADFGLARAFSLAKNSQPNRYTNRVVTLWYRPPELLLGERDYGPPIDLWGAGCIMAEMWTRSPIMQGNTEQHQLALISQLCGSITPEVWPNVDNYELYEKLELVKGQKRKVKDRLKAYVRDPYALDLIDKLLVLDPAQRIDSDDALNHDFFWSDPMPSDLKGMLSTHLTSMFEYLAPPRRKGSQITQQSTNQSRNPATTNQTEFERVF
T1 sequence (O60563 whole entry partner): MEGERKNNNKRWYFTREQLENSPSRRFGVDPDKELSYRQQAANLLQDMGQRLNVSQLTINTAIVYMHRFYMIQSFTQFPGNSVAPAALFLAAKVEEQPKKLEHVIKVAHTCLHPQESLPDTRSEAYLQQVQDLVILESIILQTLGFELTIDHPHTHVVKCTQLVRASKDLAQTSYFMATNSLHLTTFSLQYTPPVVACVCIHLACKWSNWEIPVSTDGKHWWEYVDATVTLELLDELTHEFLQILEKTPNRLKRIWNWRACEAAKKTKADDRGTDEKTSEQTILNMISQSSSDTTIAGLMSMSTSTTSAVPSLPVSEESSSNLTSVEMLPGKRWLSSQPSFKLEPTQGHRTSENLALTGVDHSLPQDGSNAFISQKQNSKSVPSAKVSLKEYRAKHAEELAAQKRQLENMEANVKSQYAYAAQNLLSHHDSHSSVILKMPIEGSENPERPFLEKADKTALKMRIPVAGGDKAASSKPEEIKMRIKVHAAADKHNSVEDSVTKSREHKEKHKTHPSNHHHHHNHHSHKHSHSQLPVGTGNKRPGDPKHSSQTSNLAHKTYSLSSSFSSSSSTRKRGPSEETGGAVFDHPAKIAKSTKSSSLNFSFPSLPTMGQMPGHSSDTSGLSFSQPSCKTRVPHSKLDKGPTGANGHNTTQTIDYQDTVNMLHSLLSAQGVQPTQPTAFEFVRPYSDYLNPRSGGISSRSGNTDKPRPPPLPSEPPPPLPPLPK

pIC50 (CDK9/CycT1) | Selectivity high ATP CDK9 over high ATP CDK2: IC50 (high ATP CDK2)/IC50 (high ATP CDK9) (CDK9/CycT1) | pIC50 (CDK2/CycE) | pIC50 (A2780 cells) | pIC50 (A2780 cells; Homo sapiens, A2780, 72 h) | SMILES | protection against bronchospasms [1]
– | – | – | – | – | C[N+]1(C)[C@@H]2C[C@@H](OC(=O)C(O)(c3cccs3)c3cccs3)C[C@H]1[C@@H]1O[C@@H]12 [tiotropium] | more than 6 hours
8.30 | 544 | 5.57 | 6.99 | – | CC1CCCCCOc2cc(ccc2F)-c2cc(ncc2F)Nc2cc(CS(C)(=N)=O)cc(n2)O1 (single isomer, unassigned) [Example 27, 3,22-difluoro-14-methyl-10-[(S-methylsulfonimidoyl)methyl]-13,20-dioxa-5,7,26-triazatetracyclo[19.3.1.1^2,6.1^8,12]heptacosa-1(25),2(27),3,5,8(26),9,11,21,23-nonaene] | –
7.80 | 1250 | < 4.70 | – | 6.92 | CC1CCCCCOc2cc(ccc2F)-c2cc(ncc2F)Nc2cc(CS(C)(=O)=O)cc(n2)O1 (single isomer, unassigned) [Example 31, 3,22-difluoro-14-methyl-10-[(methylsulfonyl)methyl]-13,20-dioxa-5,7,26-triazatetracyclo[19.3.1.1^2,6.1^8,12]hexacosa-1 (25),2(27),3,5,8(26),9,11,21,23-nonaene] | –
